Measured values from PubChem BioAssay (NCI).
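In this assay, cells in 96-well plates receive the compound at five concentrations for 48 hours. Endpoints are linearly interpolated between the surrounding concentrations. At the TGI there is no net growth.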

Tests used:
Assay in all cases: NCI tumour cell line growth inhibition, 48 h
786-0 renal = system: 786-0 renal
A498 renal = system: A498 renal
A549 NSCLC = system: A549 NSCLC
ACHN renal = system: ACHN renal
BT-549 breast = system: BT-549 breast
CAKI-1 renal = system: CAKI-1 renal
CCRF-CEM leukemia = system: CCRF-CEM leukemia
COLO 205 colon = system: COLO 205 colon
DU-145 prostate = system: DU-145 prostate
EKVX NSCLC = system: EKVX NSCLC
HCC-2998 colon = system: HCC-2998 colon
HCT-116 colon = system: HCT-116 colon
HOP-62 NSCLC = system: HOP-62 NSCLC
HOP-92 NSCLC = system: HOP-92 NSCLC
HT29 colon = system: HT29 colon
IGROV1 ovarian = system: IGROV1 ovarian
K-562 leukemia = system: K-562 leukemia
KM12 colon = system: KM12 colon
LOX IMVI melanoma = system: LOX IMVI melanoma
M14 melanoma = system: M14 melanoma
MALME-3M melanoma = system: MALME-3M melanoma
MCF7 breast = system: MCF7 breast
MDA-MB-231 breast = system: MDA-MB-231 breast
MDA-MB-435 = system: MDA-MB-435
MDA-N = system: MDA-N
MOLT-4 leukemia = system: MOLT-4 leukemia
NCI-H226 lung = system: NCI-H226 lung
NCI-H23 lung = system: NCI-H23 lung
NCI-H460 lung = system: NCI-H460 lung
NCI-H522 lung = system: NCI-H522 lung
NCI/ADR-RES ovarian = system: NCI/ADR-RES ovarian
OVCAR-3 ovarian = system: OVCAR-3 ovarian
OVCAR-4 ovarian = system: OVCAR-4 ovarian
OVCAR-5 ovarian = system: OVCAR-5 ovarian
OVCAR-8 ovarian = system: OVCAR-8 ovarian
PC-3 prostate = system: PC-3 prostate
RPMI-8226 leukemia = system: RPMI-8226 leukemia
SF-268 CNS = system: SF-268 CNS
SF-295 CNS = system: SF-295 CNS
SF-539 CNS = system: SF-539 CNS
SK-MEL-2 melanoma = system: SK-MEL-2 melanoma
SK-MEL-28 melanoma = system: SK-MEL-28 melanoma
SK-MEL-5 melanoma = system: SK-MEL-5 melanoma
SK-OV-3 ovarian = system: SK-OV-3 ovarian
SN12C renal = system: SN12C renal
SNB-19 CNS = system: SNB-19 CNS
SNB-75 CNS = system: SNB-75 CNS
SR leukemia = system: SR leukemia
SW-620 colon = system: SW-620 colon
U251 CNS = system: U251 CNS
UACC-257 melanoma = system: UACC-257 melanoma
UACC-62 melanoma = system: UACC-62 melanoma
UO-31 renal = system: UO-31 renal
HCT-15 colon = system: HCT-15 colon
HS 578T breast = system: HS 578T breast
RXF 393 renal = system: RXF 393 renal
T-47D breast = system: T-47D breast
HL-60(TB) leukemia = system: HL-60(TB) leukemia
TK-10 renal = system: TK-10 renal

Compound: C/C=C/c1c(O)c(=O)c2c(OC)cc(OC)c3c4c(OC)cc(OC)c5c(=O)c(O)c(/C=C/C)c(c1c23)c54
- TGI (786-0 renal): 38.2 µM
- TGI (A498 renal): > 100 µM
- TGI (A549 NSCLC): > 100 µM
- TGI (ACHN renal): 13.8 µM
- TGI (BT-549 breast): 14.3 µM
- TGI (CAKI-1 renal): 21.1 µM
- TGI (CCRF-CEM leukemia): > 100 µM
- TGI (COLO 205 colon): 19.1 µM
- TGI (DU-145 prostate): 23.4 µM
- TGI (EKVX NSCLC): 40.5 µM
- TGI (HCC-2998 colon): > 100 µM
- TGI (HCT-116 colon): 28 µM
- TGI (HOP-62 NSCLC): 54.5 µM
- TGI (HOP-92 NSCLC): 35.5 µM
- TGI (HT29 colon): 23.8 µM
- TGI (IGROV1 ovarian): 19.2 µM
- TGI (K-562 leukemia): > 100 µM
- TGI (KM12 colon): 31.6 µM
- TGI (LOX IMVI melanoma): 57.4 µM
- TGI (M14 melanoma): > 100 µM
- TGI (MALME-3M melanoma): 19.6 µM
- TGI (MCF7 breast): > 100 µM
- TGI (MDA-MB-231 breast): 34.9 µM
- TGI (MDA-MB-435): 26.1 µM
- TGI (MDA-N): 29.4 µM
- TGI (MOLT-4 leukemia): > 100 µM
- TGI (NCI-H226 lung): 15.8 µM
- TGI (NCI-H23 lung): 23.9 µM
- TGI (NCI-H460 lung): 44.3 µM
- TGI (NCI-H522 lung): 16.9 µM
- TGI (NCI/ADR-RES ovarian): 34 µM
- TGI (OVCAR-3 ovarian): 15.5 µM
- TGI (OVCAR-4 ovarian): 29.5 µM
- TGI (OVCAR-5 ovarian): 68.9 µM
- TGI (OVCAR-8 ovarian): 31.4 µM
- TGI (PC-3 prostate): 19.8 µM
- TGI (RPMI-8226 leukemia): > 100 µM
- TGI (SF-268 CNS): 24.6 µM
- TGI (SF-295 CNS): > 100 µM
- TGI (SF-539 CNS): > 100 µM
- TGI (SK-MEL-2 melanoma): 24.9 µM
- TGI (SK-MEL-28 melanoma): 36.6 µM
- TGI (SK-MEL-5 melanoma): 24.3 µM
- TGI (SK-OV-3 ovarian): > 100 µM
- TGI (SN12C renal): 41.8 µM
- TGI (SNB-19 CNS): 17.2 µM
- TGI (SNB-75 CNS): 28.7 µM
- TGI (SR leukemia): > 100 µM
- TGI (SW-620 colon): 87.8 µM
- TGI (U251 CNS): 47.1 µM
- TGI (UACC-257 melanoma): 45.5 µM
- TGI (UACC-62 melanoma): 30.6 µM
- TGI (UO-31 renal): 6.33 µM

Compound: S=C1SC(=Nc2ccccc2)C(=Nc2ccccc2)N1c1ccccc1
- TGI (A498 renal): > 100 µM
- TGI (BT-549 breast): > 100 µM
- TGI (CAKI-1 renal): > 100 µM
- TGI (CCRF-CEM leukemia): > 100 µM
- TGI (COLO 205 colon): > 100 µM
- TGI (DU-145 prostate): > 100 µM
- TGI (HCC-2998 colon): > 100 µM
- TGI (HCT-116 colon): > 100 µM
- TGI (HCT-15 colon): > 100 µM
- TGI (HOP-62 NSCLC): > 100 µM
- TGI (HS 578T breast): > 100 µM
- TGI (HT29 colon): > 100 µM
- TGI (IGROV1 ovarian): > 100 µM
- TGI (K-562 leukemia): > 100 µM
- TGI (KM12 colon): > 100 µM
- TGI (M14 melanoma): > 100 µM
- TGI (MALME-3M melanoma): > 100 µM
- TGI (MCF7 breast): > 100 µM
- TGI (MDA-MB-231 breast): > 100 µM
- TGI (MDA-MB-435): > 100 µM
- TGI (MDA-N): > 100 µM
- TGI (MOLT-4 leukemia): > 100 µM
- TGI (NCI-H226 lung): > 100 µM
- TGI (NCI-H23 lung): > 100 µM
- TGI (NCI-H460 lung): > 100 µM
- TGI (NCI-H522 lung): > 100 µM
- TGI (NCI/ADR-RES ovarian): > 100 µM
- TGI (OVCAR-3 ovarian): > 100 µM
- TGI (OVCAR-4 ovarian): > 100 µM
- TGI (OVCAR-5 ovarian): > 100 µM
- TGI (OVCAR-8 ovarian): > 100 µM
- TGI (PC-3 prostate): > 100 µM
- TGI (RPMI-8226 leukemia): > 100 µM
- TGI (RXF 393 renal): > 100 µM
- TGI (SF-295 CNS): > 100 µM
- TGI (SK-MEL-2 melanoma): > 100 µM
- TGI (SK-MEL-28 melanoma): > 100 µM
- TGI (SK-MEL-5 melanoma): > 100 µM
- TGI (SK-OV-3 ovarian): > 100 µM
- TGI (SN12C renal): > 100 µM
- TGI (SNB-19 CNS): > 100 µM
- TGI (SNB-75 CNS): 73.7 µM
- TGI (SR leukemia): > 100 µM
- TGI (T-47D breast): > 100 µM
- TGI (U251 CNS): > 100 µM
- TGI (UACC-62 melanoma): > 100 µM
- TGI (UO-31 renal): > 100 µM

Compound: CC(=O)C1C(=O)C(=O)N(c2cccc(C)c2C)C1=O (stereo unspecified)
- TGI (786-0 renal): > 100 µM
- TGI (A549 NSCLC): > 100 µM
- TGI (ACHN renal): > 100 µM
- TGI (BT-549 breast): > 100 µM
- TGI (CAKI-1 renal): > 100 µM
- TGI (COLO 205 colon): > 100 µM
- TGI (DU-145 prostate): > 100 µM
- TGI (EKVX NSCLC): > 100 µM
- TGI (HCT-116 colon): > 100 µM
- TGI (HL-60(TB) leukemia): > 100 µM
- TGI (HOP-62 NSCLC): > 100 µM
- TGI (HOP-92 NSCLC): > 100 µM
- TGI (HT29 colon): > 100 µM
- TGI (IGROV1 ovarian): > 100 µM
- TGI (KM12 colon): > 100 µM
- TGI (LOX IMVI melanoma): > 100 µM
- TGI (M14 melanoma): > 100 µM
- TGI (MCF7 breast): > 100 µM
- TGI (MDA-MB-231 breast): > 100 µM
- TGI (MDA-N): > 100 µM
- TGI (MOLT-4 leukemia): > 100 µM
- TGI (NCI-H226 lung): > 100 µM
- TGI (NCI-H23 lung): > 100 µM
- TGI (NCI/ADR-RES ovarian): > 100 µM
- TGI (OVCAR-3 ovarian): > 100 µM
- TGI (OVCAR-5 ovarian): > 100 µM
- TGI (OVCAR-8 ovarian): > 100 µM
- TGI (PC-3 prostate): > 100 µM
- TGI (SF-295 CNS): > 100 µM
- TGI (SF-539 CNS): > 100 µM
- TGI (SK-MEL-2 melanoma): > 100 µM
- TGI (SK-MEL-5 melanoma): > 100 µM
- TGI (SK-OV-3 ovarian): > 100 µM
- TGI (SN12C renal): > 100 µM
- TGI (SNB-19 CNS): > 100 µM
- TGI (SNB-75 CNS): > 100 µM
- TGI (T-47D breast): > 100 µM
- TGI (TK-10 renal): > 100 µM
- TGI (UACC-257 melanoma): > 100 µM
- TGI (UACC-62 melanoma): > 100 µM
- TGI (UO-31 renal): > 100 µM

Compound: O=[N+]([O-])C(Cl)C(Cl)C(Cl)=C(Cl)Cl (stereo unspecified)
- TGI (786-0 renal): 22.3 µM
- TGI (A498 renal): > 100 µM
- TGI (A549 NSCLC): > 100 µM
- TGI (ACHN renal): 31.1 µM
- TGI (BT-549 breast): 43.9 µM
- TGI (CAKI-1 renal): 33.2 µM
- TGI (CCRF-CEM leukemia): 58.6 µM
- TGI (COLO 205 colon): 34 µM
- TGI (DU-145 prostate): > 100 µM
- TGI (EKVX NSCLC): > 100 µM
- TGI (HCC-2998 colon): > 56.7 µM
- TGI (HCT-116 colon): 38.3 µM
- TGI (HCT-15 colon): 39.7 µM
- TGI (HL-60(TB) leukemia): 44.1 µM
- TGI (HOP-62 NSCLC): > 100 µM
- TGI (HS 578T breast): 67.5 µM
- TGI (HT29 colon): 36.4 µM
- TGI (IGROV1 ovarian): 18.3 µM
- TGI (K-562 leukemia): 85.2 µM
- TGI (KM12 colon): > 100 µM
- TGI (LOX IMVI melanoma): 28.8 µM
- TGI (M14 melanoma): 19.5 µM
- TGI (MALME-3M melanoma): 32.9 µM
- TGI (MCF7 breast): > 54.9 µM
- TGI (MDA-MB-231 breast): 34.6 µM
- TGI (MDA-MB-435): 56.7 µM
- TGI (MDA-N): 40.6 µM
- TGI (MOLT-4 leukemia): 47.8 µM
- TGI (NCI-H226 lung): > 100 µM
- TGI (NCI-H23 lung): 60.4 µM
- TGI (NCI-H460 lung): > 100 µM
- TGI (NCI-H522 lung): 38.4 µM
- TGI (NCI/ADR-RES ovarian): > 73.9 µM
- TGI (OVCAR-3 ovarian): > 56.7 µM
- TGI (OVCAR-4 ovarian): 31.9 µM
- TGI (OVCAR-5 ovarian): > 82.2 µM
- TGI (OVCAR-8 ovarian): > 75.2 µM
- TGI (PC-3 prostate): > 57.4 µM
- TGI (RXF 393 renal): 33.7 µM
- TGI (SF-268 CNS): > 70.5 µM
- TGI (SF-295 CNS): > 100 µM
- TGI (SF-539 CNS): > 70 µM
- TGI (SK-MEL-28 melanoma): 39 µM
- TGI (SK-MEL-5 melanoma): 24.4 µM
- TGI (SK-OV-3 ovarian): > 100 µM
- TGI (SN12C renal): > 57.7 µM
- TGI (SNB-19 CNS): > 100 µM
- TGI (SNB-75 CNS): > 72.7 µM
- TGI (SW-620 colon): 38.3 µM
- TGI (T-47D breast): 47.9 µM
- TGI (TK-10 renal): 39.4 µM
- TGI (U251 CNS): > 100 µM
- TGI (UACC-257 melanoma): 41.9 µM
- TGI (UACC-62 melanoma): 32.9 µM
- TGI (UO-31 renal): > 31.6 µM
